Source: patent publication US9963456B2, “Pyrrolopyrimidine compound or salt thereof and compositions containing the pyrrolopyrimidine compound or salt thereof” (TAIHO PHARMACEUTICAL CO., LTD., priority 2014, dated 2018)

What follows are compounds tested against NAE (heterodimer of APPBP1 and UBA3) (Homo sapiens (Human), UniProt Q8TBC4) (assay: Nedd8 conjugation inhibitory activity (AlphaScreen assay)). Settings: purified NAE, GST-UBC12, Biotin-Nedd8, ATP.
Assay type: biochemical

NAE (heterodimer of APPBP1 and UBA3), sequence (Q8TBC4 whole entry): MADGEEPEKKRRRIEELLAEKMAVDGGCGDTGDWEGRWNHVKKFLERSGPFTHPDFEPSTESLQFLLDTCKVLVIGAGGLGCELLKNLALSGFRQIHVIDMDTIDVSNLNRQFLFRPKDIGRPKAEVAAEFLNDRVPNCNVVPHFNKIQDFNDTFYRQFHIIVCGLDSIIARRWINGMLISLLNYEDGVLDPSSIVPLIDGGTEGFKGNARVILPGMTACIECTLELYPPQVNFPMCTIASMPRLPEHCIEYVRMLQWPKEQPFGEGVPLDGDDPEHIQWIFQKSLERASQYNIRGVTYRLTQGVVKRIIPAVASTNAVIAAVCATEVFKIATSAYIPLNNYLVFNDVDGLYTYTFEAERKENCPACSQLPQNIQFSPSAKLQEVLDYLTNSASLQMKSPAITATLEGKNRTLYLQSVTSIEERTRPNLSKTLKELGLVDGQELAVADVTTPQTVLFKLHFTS
NAE (heterodimer of APPBP1 and UBA3), sequence (Q13564 whole entry partner): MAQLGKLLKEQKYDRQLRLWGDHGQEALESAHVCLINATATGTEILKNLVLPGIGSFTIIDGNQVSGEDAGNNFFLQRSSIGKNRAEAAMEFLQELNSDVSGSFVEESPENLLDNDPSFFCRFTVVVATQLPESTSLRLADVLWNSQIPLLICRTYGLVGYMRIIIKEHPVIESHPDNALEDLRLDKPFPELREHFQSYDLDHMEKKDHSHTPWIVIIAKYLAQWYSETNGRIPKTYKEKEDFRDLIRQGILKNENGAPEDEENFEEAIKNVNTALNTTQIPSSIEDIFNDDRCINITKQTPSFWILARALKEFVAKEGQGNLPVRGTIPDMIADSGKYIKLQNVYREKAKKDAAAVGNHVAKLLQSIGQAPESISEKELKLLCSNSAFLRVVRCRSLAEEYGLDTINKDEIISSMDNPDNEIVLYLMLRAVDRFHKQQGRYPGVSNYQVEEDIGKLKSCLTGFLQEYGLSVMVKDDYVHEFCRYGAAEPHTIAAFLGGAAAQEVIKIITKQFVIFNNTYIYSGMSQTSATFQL

| SMILES | IC50 [µM] |
| --- | --- |
| Nc1ncnc2c1c(C#Cc1ccnc3ccccc13)cn2[C@@H]1O[C@H](CNS(N)(=O)=O)[C@@H](O)[C@H]1O [Example 8, 4-[2-[4-Amino-7-[(2R,3R,4S,5R)-3,4-dihydroxy-5-[(sulfamoylamino)methyl]tetrahydrofuran-2-yl]pyrrolo[2,3-d]pyrimidin-5-yl]ethynyl]quinoline] | 0.029 |
| Nc1ncnc2c1c(C#Cc1nccc3ccccc13)cn2[C@@H]1O[C@H](CNS(N)(=O)=O)[C@@H](O)[C@H]1O [Example 11, 1-[2-[4-Amino-7-[(2R,3R,4S,5R)-3,4-dihydroxy-5-[(sulfamoylamino)methyl]tetrahydrofuran-2-yl]pyrrolo[2,3-d]pyrimidin-5-yl]ethynyl]isoquinoline] | 0.0078 |
| COc1cccc(OC)c1C#Cc1cn([C@@H]2O[C@H](CNS(N)(=O)=O)[C@@H](O)[C@H]2O)c2ncnc(N)c12 [Example 16, 4-Amino-7-[(2R,3R,4S,5R)-3,4-dihydroxy-5-[(sulfamoylamino)methyl]tetrahydrofuran-2-yl]-5-[2-(2,6-dimethoxyphenyl)ethynyl]pyrrolo[2,3-d]pyrimidine] | 0.0096 |
| Nc1ncnc2c1c(C#Cc1cccc3cccnc13)cn2[C@@H]1O[C@H](CNS(N)(=O)=O)[C@@H](O)[C@H]1O [Example 17, 8-[2-[4-Amino-7-[(2R,3R,4S,5R)-3,4-dihydroxy-5-[(sulfamoylamino)methyl]tetrahydrofuran-2-yl]pyrrolo[2,3-d]pyrimidin-5-yl]ethynyl]quinoline] | 0.0054 |
| Nc1ncnc2c1c(C#Cc1ccccc1OC(F)F)cn2[C@@H]1O[C@H](CNS(N)(=O)=O)[C@@H](O)[C@H]1O [Example 18, 4-Amino-5-[2-[2-(difluoromethoxy)phenyl]ethynyl]-7-[(2R,3R,4S,5R)-3,4-dihydroxy-5-[(sulfamoylamino)methyl]tetrahydrofuran-2-yl]pyrrolo[2,3-d]pyrimidine] | 0.027 |
| Nc1ncnc2c1c(C#Cc1ccc3[nH]ncc3n1)cn2[C@@H]1O[C@H](CNS(N)(=O)=O)[C@@H](O)[C@H]1O [Example 19, 4-Amino-7-[(2R,3R,4S,5R)-3,4-dihydroxy-5-[(sulfamoylamino)methyl]tetrahydrofuran-2-yl]-5-[2-(1H-pyrazolo[4,3-b]pyridin-5-yl)ethynyl]pyrrolo[2,3-d]pyrimidine] | 0.028 |
| Nc1ccc(C#Cc2cn([C@@H]3O[C@H](CNS(N)(=O)=O)[C@@H](O)[C@H]3O)c3ncnc(N)c23)c(F)c1 [Example 20, 4-Amino-5-[2-(4-amino-2-fluoro-phenyl)ethynyl]-7-[(2R,3R,4S,5R)-3,4-dihydroxy-5-[(sulfamoylamino)methyl]tetrahydrofuran-2-yl]pyrrolo[2,3-d]pyrimidine] | 0.0091 |
| Nc1ncnc2c1c(C#CC1CCc3ccccc31)cn2[C@@H]1O[C@H](CNS(N)(=O)=O)[C@@H](O)[C@H]1O (stereo partly drawn) [Example 21, 4-Amino-7-[(2R,3R,4S,5R)-3,4-dihydroxy-5-[(sulfamoylamino)methyl]tetrahydrofuran-2-yl]-5-(2-indan-1-ylethynyl)pyrrolo[2,3-d]pyrimidine] | 0.015 |
| CCNc1cc(F)c(C#Cc2cn([C@@H]3O[C@H](CNS(N)(=O)=O)[C@@H](O)[C@H]3O)c3ncnc(N)c23)c(F)c1 [Example 26, 4-Amino-7-[(2R,3R,4S,5R)-3,4-dihydroxy-5-[(sulfamoylamino)methyl]tetrahydrofuran-2-yl]-5-[2-[4-(ethylamino)-2,6-difluoro-phenyl]ethynyl]pyrrolo[2,3-d]pyrimidine] | 0.012 |
| Nc1ncnc2c1c(C#Cc1c(F)cc(N3CC[C@@H](O)C3)cc1F)cn2[C@@H]1O[C@H](CNS(N)(=O)=O)[C@@H](O)[C@H]1O [Example 30, 4-Amino-5-[2-[2,6-difluoro-4-[(3R)-3-hydroxypyrrolidin-1-yl]phenyl]ethynyl]-7-[(2R,3R,4S,5R)-3,4-dihydroxy-5-[(sulfamoylamino)methyl]tetrahydrofuran-2-yl]pyrrolo[2,3-d]pyrimidine] | 0.027 |
| CCOc1cc(N2CCOCC2)cc(F)c1C#Cc1cn([C@@H]2O[C@H](CNS(N)(=O)=O)[C@@H](O)[C@H]2O)c2ncnc(N)c12 [Example 34, 4-[4-[2-[4-Amino-7-[(2R,3R,4S,5R)-3,4-dihydroxy-5-[(sulfamoylamino)methyl]tetrahydrofuran-2-yl]pyrrolo[2,3-d]pyrimidin-5-yl]ethynyl]-3-ethoxy-5-fluoro-phenyl]morpholine] | 0.024 |
| CCOc1cc(F)cc(F)c1C#Cc1cn([C@@H]2O[C@H](CNS(N)(=O)=O)[C@@H](O)[C@H]2O)c2ncnc(N)c12 [Example 35, 4-Amino-7-[(2R,3R,4S,5R)-3,4-dihydroxy-5-[(sulfamoylamino)methyl]tetrahydrofuran-2-yl]-5-[2-(2-ethoxy-4,6-difluoro-phenyl)ethynyl]pyrrolo[2,3-d]pyrimidine] | 0.0041 |
| Nc1ncnc2c1c(C#Cc1c(F)cc(N3CCSCC3)cc1F)cn2[C@@H]1O[C@H](CNS(N)(=O)=O)[C@@H](O)[C@H]1O [Example 37, 4-[4-[2-[4-Amino-7-[(2R,3R,4S,5R)-3,4-dihydroxy-5-[(sulfamoylamino)methyl]tetrahydrofuran-2-yl]pyrrolo[2,3-d]pyrimidin-5-yl]ethynyl]-3,5-difluoro-phenyl]thiomorpholine] | 0.011 |
| Nc1ncnc2c1c(C#Cc1c(F)cc(N3CCCC(O)C3)cc1F)cn2[C@@H]1O[C@H](CNS(N)(=O)=O)[C@@H](O)[C@H]1O (stereo partly drawn) [Example 38, 4-Amino-5-[2-[2,6-difluoro-4-(3-hydroxy-1-piperidyl)phenyl]ethynyl]-7-[(2R,3R,4S,5R)-3,4-dihydroxy-5-[(sulfamoylamino)methyl]tetrahydrofuran-2-yl]pyrrolo[2,3-d]pyrimidine] | 0.0035 |
| Nc1ncnc2c1c(C#Cc1c(F)cc(N3CCC(=O)CC3)cc1F)cn2[C@@H]1O[C@H](CNS(N)(=O)=O)[C@@H](O)[C@H]1O [Example 42, 4-Amino-5-[2-[2,6-difluoro-4-(4-oxo-1-piperidyl)phenyl]ethynyl]-7-[(2R,3R,4S,5R)-3,4-dihydroxy-5-[(sulfamoylamino)methyl]tetrahydrofuran-2-yl]pyrrolo[2,3-d]pyrimidine] | 0.0043 |
| Nc1ncnc2c1c(C#Cc1ccccn1)cn2[C@@H]1O[C@H](CNS(N)(=O)=O)[C@@H](O)[C@H]1O [Example 44, 4-Amino-7-[(2R,3R,4S,5R)-3,4-dihydroxy-5-[(sulfamoylamino)methyl]tetrahydrofuran-2-yl]-5-[2-(2-pyridyl)ethynyl]pyrrolo[2,3-d]pyrimidine] | 0.029 |
| N#Cc1ccccc1C#Cc1cn([C@@H]2O[C@H](CNS(N)(=O)=O)[C@@H](O)[C@H]2O)c2ncnc(N)c12 [Example 49, 4-Amino-5-[2-(2-cyanophenyl)ethynyl]-7-[(2R,3R,4S,5R)-3,4-dihydroxy-5-[(sulfamoylamino)methyl]tetrahydrofuran-2-yl]pyrrolo[2,3-d]pyrimidine] | 0.018 |
| COc1cccc(F)c1C#Cc1cn([C@@H]2O[C@H](CNS(N)(=O)=O)[C@@H](O)[C@H]2O)c2ncnc(N)c12 [Example 51, 4-Amino-7-[(2R,3R,4S,5R)-3,4-dihydroxy-5-[(sulfamoylamino)methyl]tetrahydrofuran-2-yl]-5-[2-(2-fluoro-6-methoxy-phenyl)ethynyl]pyrrolo[2,3-d]pyrimidine] | 0.0035 |
| Nc1ncnc2c1c(C#Cc1c(F)cc(O)cc1F)cn2[C@@H]1O[C@H](CNS(N)(=O)=O)[C@@H](O)[C@H]1O [Example 54, 4-Amino-5-[2-(2,6-difluoro-4-hydroxy-phenyl)ethynyl]-7-[(2R,3R,4S,5R)-3,4-dihydroxy-5-[(sulfamoylamino)methyl]tetrahydrofuran-2-yl]pyrrolo[2,3-d]pyrimidine] | 0.0045 |
| CC(C)Oc1cccc(F)c1C#Cc1cn([C@@H]2O[C@H](CNS(N)(=O)=O)[C@@H](O)[C@H]2O)c2ncnc(N)c12 [Example 56, 4-Amino-7-[(2R,3R,4S,5R)-3,4-dihydroxy-5-[(sulfamoylamino)methyl]tetrahydrofuran-2-yl]-5-[2-(2-fluoro-6-isopropoxy-phenyl)ethynyl]pyrrolo[2,3-d]pyrimidine] | 0.0053 |
| N#Cc1cc(F)c(C#Cc2cn([C@@H]3O[C@H](CNS(N)(=O)=O)[C@@H](O)[C@H]3O)c3ncnc(N)c23)c(F)c1 [Example 57, 4-Amino-5-[2-(4-cyano-2,6-difluoro-phenyl)ethynyl]-7-[(2R,3R,4S,5R)-3,4-dihydroxy-5-[(sulfamoylamino)methyl]tetrahydrofuran-2-yl]pyrrolo[2,3-d]pyrimidine] | 0.0058 |
| CSc1cccc(F)c1C#Cc1cn([C@@H]2O[C@H](CNS(N)(=O)=O)[C@@H](O)[C@H]2O)c2ncnc(N)c12 [Example 59, 4-Amino-7-[(2R,3R,4S,5R)-3,4-dihydroxy-5-[(sulfamoylamino)methyl]tetrahydrofuran-2-yl]-5-[2-(2-fluoro-6-methylsulfanyl-phenyl)ethynyl]pyrrolo[2,3-d]pyrimidine] | 0.0085 |
| Nc1ncnc2c1c(C#Cc1c(F)cccc1OCC(F)(F)F)cn2[C@@H]1O[C@H](CNS(N)(=O)=O)[C@@H](O)[C@H]1O [Example 61, 4-Amino-7-[(2R,3R,4S,5R)-3,4-dihydroxy-5-[(sulfamoylamino)methyl]tetrahydrofuran-2-yl]-5-[2-[2-fluoro-6-(2,2,2-trifluoroethoxy)phenyl]ethynyl]pyrrolo[2,3-d]pyrimidine] | 0.0038 |
| CCOc1cccc(OC)c1C#Cc1cn([C@@H]2O[C@H](CNS(N)(=O)=O)[C@@H](O)[C@H]2O)c2ncnc(N)c12 [Example 62, 4-Amino-7-[(2R,3R,4S,5R)-3,4-dihydroxy-5-[(sulfamoylamino)methyl]tetrahydrofuran-2-yl]-5-[2-(2-ethoxy-6-methoxy-phenyl)ethynyl]pyrrolo[2,3-d]pyrimidine] | 0.016 |
| COc1ccc2cccnc2c1C#Cc1cn([C@@H]2O[C@H](CNS(N)(=O)=O)[C@@H](O)[C@H]2O)c2ncnc(N)c12 [Example 63, 8-[2-[4-Amino-7-[(2R,3R,4S,5R)-3,4-dihydroxy-5-[(sulfamoylamino)methyl]tetrahydrofuran-2-yl]pyrrolo[2,3-d]pyrimidin-5-yl]ethynyl]-7-methoxyquinoline] | 0.011 |
